# Data published in US20170008928A1, “NOVEL PEPTIDES AND PEPTIDE DERIVATIVES AND USES THEREOF” (Novo Nordisk A/S, priority 2015, published 2017).
# Starred links: 1 amine or outer side, 2 acyl side, 3 side chain; linkers in the order of their positions; H or OH if unused. Non-standard residues stand in square brackets, D forms with d. Residues, ends and D or L forms follow the SMILES beside them. *: point of attachment. Phe(4-CH2SO3H) = N[C@@H](Cc1ccc(CS(=O)(=O)O)cc1)C(=O)O; C20 diacid = O=C(O)CCCCCCCCCCCCCCCCCCC(=O)*; sY = N[C@@H](Cc1ccc(OS(=O)(=O)O)cc1)C(=O)O; C18 diacid = O=C(O)CCCCCCCCCCCCCCCCC(=O)*; γGlu = O=C(O)[C@H](CCC(=O)[*:2])N[*:1]; 1Nal = N[C@@H](Cc1cccc2ccccc12)C(=O)O; C14 diacid = O=C(O)CCCCCCCCCCCCC(=O)*; NMeF = CN[C@@H](Cc1ccccc1)C(=O)O; dNMeD = CN[C@H](CC(=O)O)C(=O)O; Nle = CCCC[C@H](N)C(=O)O; AEEA = NCCOCCOCC(=O)O
# Key:
# [1] = Pharmacokinetic (PK) studies in mini-pig, i.v.; assay type: in vivo; settings: i.v. 5 nmol/kg, female Göttingen mini-pigs, harmonic mean
# Method: The purpose of this study is to determine the protraction in vivo of a number of CCK derivatives of the invention after intravenous (i.v.) administration to mini-pigs, i.e. the prolongation of their time in the body and thereby their time of action. This was done in pharmacokinetic (PK) studies, where the terminal half-life of the derivative in question was determined. By terminal half-life is generally meant the period of time it takes to halve a certain plasma concentration, measured after the initial distribution phase.
# The derivatives of the compounds listed in Table 4 were subjected to PK studies as described in the following.
# Female Göttingen mini-pigs obtained from Ellegaard Göttingen Minipigs (Dalmose, Denmark) at approximately 6 months of age and weighing approximately 17 kg were used in the studies. […] Additional blood samples were collected for the derivatives of Examples 2, 4, 7, 8, and 9 at the following time points: 5, 12, 22, 28 and 144 hours. The blood samples were collected into test tubes containing EDTA buffer for stabilisation and kept on ice for max. 20 minutes before centrifugation. The centrifugation procedure to separate plasma was: 4° C., approx. 2500 g for 10 minutes. Plasma was collected and immediately transferred to Micronic tubes stored at −20° C. until assayed.
# Plasma was pipetted into Micronic tubes on dry ice, and kept at −20° C. until analysed for plasma concentration of the respective CCK derivative using LC-MS. The plasma samples (including standard curve samples used for quantitation of unknowns and prepared from blank plasma spiked with CCK compound at a concentration range of 0.5-2000 nM for the compounds of Examples 3, 5, 6 or 0.5-1000 nM for the remaining Example compounds) were protein precipitated using three volumes of methanol and centrifuged (16000×g, 4° C., 20 min). The supernatants were injected into the chromatographic system (TurboFlow Transcend 1250 & 10 valve VIM, Thermo Fisher Scientific) which consisted of an initial Turboflow Cyclone purification column 0.5×50 mm (Thermo Fischer Scientific) and an eluting Aeris peptide 3.6 μm XB—C18 column 2.1×50 mm (Phenomenex) kept at 60° C.
# The CCK derivatives of Examples 2-9 were eluted using LC-MS method I: A chromatographic gradient system with mobile phases consisting of water with 0.1 v/v % formic acid (mobile phase A) and water/acetonitrile 10/90 v/v with 0.1 v/v % formic acid (mobile phase B). The 2 minute gradient started at 60% mobile phase B and ended at 100% mobile phase B with a flow of 0.4 mL/min. The CCK derivatives were detected and quantified after on-line infusion of the LC flow to the LTQ OrbiTrap Discovery mass spectrometer (Thermo Fischer Scientific) equipped with an electrospray interface operated in negative mode, ESI− (Sheath gas flow rate at 40, Aux gas flow rate at 30, Sweep gas flow rate at 2, Spray voltage at 2.8 kV, Capillary temp. at 275° C., S-lens RF level at −125 and Heater temp. at 325° C.).
# The remaining Example compounds were eluted using LC-MS method II: A chromatographic gradient system with mobile phases consisting of water with 1 v/v % formic acid (mobile phase A) and water/acetonitrile 10/90 v/v with 1 v/v % formic acid (mobile phase B). The initial 0.25 minute gradient started at 0% mobile phase B and ended at 70% mobile phase B followed by the second 2.2 minute gradient started at 70% mobile phase B and ended at 75% mobile phase B with a flow of 0.4 mL/min. These CCK derivatives were detected and quantified as described above except that the Spray voltage was 4.0 kV.
# Individual plasma concentration-time profiles were analysed by a non-compartmental model in Phoenix v. 6.3 (Pharsight Inc., Mountain View, Calif., USA).
# [2] = Chemical stability in 50 mM phosphate buffer pH 7.4, RP-UPLC; assay type: physicochemical
# Method: The purpose of this assay is to assess the chemical stability of the derivatives of the invention in aqueous solutions. The chemical stability was investigated by RP-UPLC separation and UV detection.
# Lyophilised samples of the derivative of Example 3 were dissolved in a 50 mM sodium phosphate buffer pH 7.4 containing 70 mM NaCl and 0.05 v/v % polysorbate 80, at a concentration of 1 mg/ml of the derivative (for the Example 3 derivative 1 mg/ml equates 0.54 mM). If necessary, pH was adjusted to 7.4. […]
# RP-UPLC analysis was performed using a Waters Acquity system with the following parameters:
# The following UPLC gradient was used: […]
# Purity of a compound is defined as the area percentage of the compound peak in relation to the total area of all integrated peaks in the chromatogram and is calculated by the software of the apparatus. Absolute purity loss (in percentage points, pp) is determined as the difference in purity between the start sample and the sample incubated for a certain time at a certain temperature. Relative purity loss (in %) is the ratio of absolute purity loss to the purity determined in the start sample.
# [3] = Chemical stability compared to CCK-8s, 8 mM phosphate pH 7.4, RP-UHPLC; assay type: physicochemical; settings: after two weeks at 37° C.
# Method: The resulting samples were stored in HPLC vials at 5° C. and 37° C. for 2 weeks. The samples were analysed in the beginning of the experiment (t=0), after one week and after two weeks by RP-UHPLC with a mobile phase containing phosphate and with a gradient of acetonitrile. UV detection at 215 nm was used. Samples after one week and two weeks were analysed twice. The calculations were done as described above, and the results are summarised in Table 7 (average of two determinations).
smiles,measurement,setting,value
"CCCC[C@H](NC(=O)[C@H](Cc1ccc(OS(=O)(=O)O)cc1)NC(=O)[C@H](CC(=O)O)NC(=O)COCCOCCNC(=O)COCCOCCNC(=O)CC[C@H](NC(=O)CCCCCCCCCCCCCCCCC(=O)O)C(=O)O)C(=O)NCC(=O)N[C@@H](Cc1c[nH]c2ccccc12)C(=O)N[C@@H](CCCC)C(=O)N(C)[C@H](CC(=O)O)C(=O)N[C@@H](Cc1cccc2ccccc12)C(N)=O [Example 2, 2-[2-[2-[[2-[2-[2-[[(4S)-4-Carboxy-4-(17-carboxyheptadecanoylamino)butanoyl]amino]ethoxy]ethoxy]acetyl]amino]ethoxy]ethoxy]acetyl-Asp-sTyr-Nle-Gly-Trp-Nle-DMeAsp-1Nal-amide] ({C18 diacid-γGlu-AEEA-AEEA}-D[sY][Nle]GW[Nle][dNMeD][1Nal]-NH2)",Plasma terminal half-life (T½),[1],140 h
"CCCC[C@H](NC(=O)[C@H](Cc1ccc(CS(=O)(=O)O)cc1)NC(=O)[C@H](CC(=O)O)NC(=O)COCCOCCNC(=O)COCCOCCNC(=O)CC[C@H](NC(=O)CCCCCCCCCCCCCCCCC(=O)O)C(=O)O)C(=O)NCC(=O)N[C@@H](Cc1c[nH]c2ccccc12)C(=O)N[C@@H](CCCC)C(=O)N(C)[C@H](CC(=O)O)C(=O)N(C)[C@@H](Cc1ccccc1)C(N)=O [Example 3, 2-[2-[2-[[2-[2-[2-[[(4S)-4-Carboxy-4-(17-carboxyheptadecanoylamino)butanoyl]amino]ethoxy]ethoxy]acetyl]amino]ethoxy]ethoxy]acetyl-Asp-Phe(4-sulfomethyl)-Nle-Gly-Trp-Nle-DMeAsp-MePhe-amide] ({C18 diacid-γGlu-AEEA-AEEA}-D[Phe(4-CH2SO3H)][Nle]GW[Nle][dNMeD][NMeF]-NH2)","chemical stability, overall","[2]; all three temperatures tested (5, 25, 37° C.), up to at least 6 weeks",very stable
same,short term chemical stability,"[2]; same buffer, 25° C., three days, 25 μM, 100 μM and 500 μM",virtually no degradation
same,stability higher than the stability of CCK-8s,[3],about 50%
"CCCC[C@H](NC(=O)[C@H](Cc1c[nH]c2ccccc12)NC(=O)CNC(=O)[C@H](CC(C)C)NC(=O)[C@H](Cc1ccc(OS(=O)(=O)O)cc1)NC(=O)[C@H](CC(=O)O)NC(=O)[C@H](CO)NC(=O)[C@H](CO)NC(=O)CNC(=O)[C@H](CO)NC(=O)[C@H](CO)NC(=O)CNC(=O)CCCCCCCCCCCCCCCCC(=O)O)C(=O)N(C)[C@H](CC(=O)O)C(=O)N(C)[C@@H](Cc1ccccc1)C(N)=O [Example 29, 17-Carboxyheptadecanoyl-Gly-Ser-Ser-Gly-Ser-Ser-Asp-sTyr-Leu-Gly-Trp-Nle-DMeAsp-MePhe-amide] ({C18 diacid}-GSSGSSD[sY]LGW[Nle][dNMeD][NMeF]-NH2)",half-life,"[1]; minipig, plasma, iv, read-out: Plasma terminal half-life (T½) (converted)",119 h
"CCCC[C@H](NC(=O)[C@H](Cc1c[nH]c2ccccc12)NC(=O)CNC(=O)[C@H](CC(C)C)NC(=O)[C@H](Cc1ccc(CS(=O)(=O)O)cc1)NC(=O)[C@H](CC(=O)O)NC(=O)COCCOCCNC(=O)COCCOCCNC(=O)CC[C@H](NC(=O)CCCCCCCCCCCCC(=O)O)C(=O)O)C(=O)N(C)[C@H](CC(=O)O)C(=O)N(C)[C@@H](Cc1ccccc1)C(N)=O [Example 34, 2-[2-[2-[[2-[2-[2-[[(4S)-4-Carboxy-4-(13-carboxytridecanoylamino)butanoyl]amino]ethoxy]ethoxy]acetyl]amino]ethoxy]ethoxy]acetyl-Asp-Phe(4-sulfomethyl)-Leu-Gly-Trp-Nle-DMeAsp-MePhe-amide] ({C14 diacid-γGlu-AEEA-AEEA}-D[Phe(4-CH2SO3H)]LGW[Nle][dNMeD][NMeF]-NH2)",Plasma terminal half-life (T½),[1],2 h
"CCCC[C@H](NC(=O)[C@H](Cc1c[nH]c2ccccc12)NC(=O)CNC(=O)[C@H](CC(C)C)NC(=O)[C@H](Cc1ccc(CS(=O)(=O)O)cc1)NC(=O)[C@H](CC(=O)O)NC(=O)COCCOCCNC(=O)COCCOCCNC(=O)CC[C@H](NC(=O)CCCCCCCCCCCCCCCCCCC(=O)O)C(=O)O)C(=O)N(C)[C@H](CC(=O)O)C(=O)N(C)[C@@H](Cc1ccccc1)C(N)=O [Example 35, 2-[2-[2-[[2-[2-[2-[[(4S)-4-Carboxy-4-(19-carboxynonadecanoylamino)butanoyl]amino]ethoxy]ethoxy]acetyl]amino]ethoxy]ethoxy]acetyl-Asp-Phe(4-sulfomethyl)-Leu-Gly-Trp-Nle-DMeAsp-MePhe-amide] ({C20 diacid-γGlu-AEEA-AEEA}-D[Phe(4-CH2SO3H)]LGW[Nle][dNMeD][NMeF]-NH2)",Plasma terminal half-life (T½),[1],153 h
